Where two headings read alike, the source gives them in different places.
How the values were obtained:
Format in all cases: cell-based
Human neutrophils = assay: Inhibition of ROS production in human neutrophils (isoluminol chemiluminescence); settings: Homo sapiens, Neutrophil, fMLP+TNF-α stimulated PMN
How it was run: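 Extracellular ROS measured as isoluminol-amplified chemiluminescence following 1 μM fMLP activation on fibrinogen-coated plates, readings every 25 sec over 250 sec minus HBSS/isoluminol background. Beforehand, cells were treated with compounds at 0.1, 0.3, 1, 3 or 10 μM (30 min, 37° C) and TNF-α (20 ng/ml, 10 min); duplicate or triplicate.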

IFN-gamma = assay: Cytokine release after LPS induction on human whole blood: IFNγ
Experimental: (§1) Aim of this in vitro method is to assess compounds effects on release of a panel of cytokines from whole blood following lipopolysaccharide (LPS) induced inflammatory reaction. Whole blood was incubated with compounds for 1 h prior to LPS induction. Cytokine levels in blood were measured using a multiplex FACS-based panel.
(§2) IC50 values determined for the tested compounds expressed in microM [μM] and the values for the inhibition of cytokines were listed for each compound.
(§3) Effect on cytokines release after LPS induction was performed on the compounds dissolved in DMSO or H2O to reach 10-fold concentrated stock solutions and dissolved in culture media.
(§4) Test system: Whole blood was removed from a single donor (into lithium heparin coated tubes; BD Vacutainer; 367886) and diluted 1:5 with RPMI 1640 (Thermo Fisher, 61870036). Within 30 minutes of sampling, blood was incubated with compounds for 1 h prior to LPS stimulation (O111:B4—Sigma L4391; 10 ng/ml final concentration). Stimulation continued under standard cell culture conditions (37° C. with 5% CO2) overnight (18 h), after which plates were centrifuged and supernatant removed and frozen at −80° C. until used for analyses.
(§5) Dilution of test compounds: 10×concentrated solutions (concerning to the final assay concentrations) of each test compound were prepared with the appropriate solvent (in DMSO or in water). These 10× compound solutions (10 μl) were then added to 90 μl pre-diluted whole blood (whole blood: RPMI1640, 1:5) resulting in the final assay concentration.
(§6) Test method: Diluted whole blood (80 μl) was pre-incubated with compounds (10 μl) to give final assay concentrations of 100, 30, 10, 3, 1, 0.3 and 0.1×10^−6M. Blood was incubated at 37° C. with 5% CO2 for 1 h. LPS was diluted in cell culture media to a concentration of […]; 10 μl was added to the whole blood to give a final concentration of 10 ng/ml. Plates were incubated at 37° C. for 18 h. Plates were centrifuged at 3,000 RPM for 5 minutes at 4° C. and supernatant removed and frozen at −80° C. until FACS analysis was carried out.
(§7) Cytokine release was measured using a custom multiplex system (ELISA Genie) according to manufacturers instructions. Prepared samples were run on an Attune NxT flow cytometer (Thermo Fisher).
(§8) Quantification of cytokine release inhibition: known concentration standards were run as part of the cytokine panel to allow quantification of each cytokine concentration in each sample. This was carried out using FCAP Array v3.0 software.
(§9) Results: The dose response relationship on cytokine release following LPS induction of inflammatory response in whole blood was assessed for all compounds. IC50 values were determined for each compound for a panel of cytokines (GM-CSF, IFN-gamma, IL-1beta, IL-2, IL-4, IL-5, IL-6, IL-8, IL-9, IL-10, IL-12p40, IL-13, IL-17A, IL-17F, IL-18, IL-21, IL-22, IL-33, TGF-beta, TNF-alpha, TNF-beta).

IL-1beta = assay: Cytokine release after LPS induction on human whole blood: IL-1β
Experimental: as §1, §2, §3, §4, §5, §6, §7, §8, §9

IL-4 = assay: Cytokine release after LPS induction on human whole blood: IL-4
Experimental: as §1, §2, §3, §4, §5, §6, §7, §8, §9

IL-5 = assay: Cytokine release after LPS induction on human whole blood: IL-5
Experimental: as §1, §2, §3, §4, §5, §6, §7, §8, §9

IL-13 = assay: Cytokine release after LPS induction on human whole blood: IL-13
Experimental: as §1, §2, §3, §4, §5, §6, §7, §8, §9

IL-33 = assay: Cytokine release after LPS induction on human whole blood: IL-33
Experimental: as §1, §2, §3, §4, §5, §6, §7, §8, §9

TGF-beta = assay: Cytokine release after LPS induction on human whole blood: TGFβ
Experimental: as §1, §2, §3, §4, §5, §6, §7, §8, §9

TNF-alpha = assay: Cytokine release after LPS induction on human whole blood: TNFα
Experimental: as §1, §2, §3, §4, §5, §6, §7, §8, §9

[1] = Homo sapiens, LPS 10 ng/ml, 18 h, read-out: Whole Blood: IFNγ IC50
[2] = human whole blood, inhibition of LPS induced inflammation, read-out: IC50 IFNγ
[3] = Homo sapiens, LPS 10 ng/ml, 18 h, read-out: Whole Blood: IL-1β IC50
[4] = human whole blood, inhibition of LPS induced inflammation, read-out: IC50 IL-1b
[5] = Homo sapiens, LPS 10 ng/ml, 18 h, read-out: Whole Blood: IL-4 IC50
[6] = human whole blood, inhibition of LPS induced inflammation, read-out: IC50 IL-4
[7] = Homo sapiens, LPS 10 ng/ml, 18 h, read-out: Whole Blood: IL-5 IC50
[8] = human whole blood, inhibition of LPS induced inflammation, read-out: IC50 IL-5
[9] = Homo sapiens, LPS 10 ng/ml, 18 h, read-out: Whole Blood: IL-13 IC50
[10] = human whole blood, inhibition of LPS induced inflammation, read-out: IC50 IL-13
[11] = Homo sapiens, LPS 10 ng/ml, 18 h, read-out: Whole Blood: IL-33 IC50
[12] = human whole blood, inhibition of LPS induced inflammation, read-out: IC50 IL-33
[13] = Homo sapiens, LPS 10 ng/ml, 18 h, read-out: Whole Blood: TGFβ IC50
[14] = human whole blood, inhibition of LPS induced inflammation, read-out: IC50 TGFbeta
[15] = Homo sapiens, LPS 10 ng/ml, 18 h, read-out: Whole Blood: TNF α IC50
[16] = human whole blood, inhibition of LPS induced inflammation, read-out: IC50 TNFa

Row | IC50 (Human neutrophils) | IC50 (IFN-gamma; [1]) | IC50 (IFN-gamma; [2]) | IC50 (IL-1beta; [3]) | IC50 (IL-1beta; [4]) | IC50 (IL-4; [5]) | IC50 (IL-4; [6]) | IC50 (IL-5; [7]) | IC50 (IL-5; [8]) | IC50 (IL-13; [9]) | IC50 (IL-13; [10]) | IC50 (IL-33; [11]) | IC50 (IL-33; [12]) | IC50 (TGF-beta; [13]) | IC50 (TGF-beta; [14]) | IC50 (TNF-alpha; [15]) | IC50 (TNF-alpha; [16]) | Compound | inhibition at 0.3 µM (Human neutrophils)
1 | 1.06 µM | 2.22 µM | 2.22 µM | 33.3 µM | 33.3 µM | > 100 µM | 100 µM | > 100 µM | 100 µM | > 100 µM | 100 µM | 31.3 µM | 31.3 µM | > 100 µM | 100 µM | 0.31 µM | 0.31 µM | O=C(O)c1cc(NC(=O)c2cc(O)c(C(=O)O)cc2O)cc(NC(=O)c2cc(O)c(C(=O)O)cc2O)c1 [Ib-010a, 3,5-bis(2,5-dihydroxy-4-carboxybenzoylamino)benzoic acid] | 71.8%
2 |  | 0.9 µM | 0.9 µM | 16.2 µM | 16.2 µM | > 100 µM | 100 µM | > 100 µM | 100 µM | 4.73 µM | 4.73 µM | 2.93 µM | 2.93 µM | > 100 µM | 100 µM | 0.15 µM | 0.15 µM | CC(=O)N(Cc1cc(O)c(C(=O)O)cc1O)Cc1cc(O)c(C(=O)O)cc1O [IIIc-057a, N,N-Bis(4-carboxy-2,5-dihydroxyphenylmethyl)acetamide] | 90.3%
3 |  | 1.38 µM |  | > 100 µM |  | > 100 µM |  | > 100 µM |  | 0.12 µM |  | 0.23 µM |  | > 100 µM |  | 0.1 µM |  | O=C(Nc1ccccc1-c1nnn[nH]1)c1cc(O)c(C(=O)Nc2ccccc2-c2nnn[nH]2)cc1O [Ic-001aTz2, N1,N4-bis(2-(1H-tetrazol-5-yl)phenyl)-2,5-dihydroxyterephthalamide] | 60.6%
4 | 4.13 µM | 3.5 µM | 3.5 µM | 14.1 µM | 14.1 µM | > 100 µM | 100 µM | > 100 µM | 100 µM | 18.7 µM | 18.7 µM | 23.2 µM | 23.2 µM | > 100 µM | 100 µM | 0.3 µM | 0.3 µM | COC(=O)c1cc(OC(C)=O)cc(CS(=O)(=O)Cc2cc(OC(C)=O)cc(C(=O)OC)c2OC(C)=O)c1OC(C)=O [IVc-059a-E2-A4] | 29.2%
5 | 0.62 µM | 1.04 µM | 1.04 µM | > 100 µM | 100 µM | > 100 µM | 100 µM | > 100 µM | 100 µM | 29.9 µM | 29.9 µM | 12.1 µM | 12.1 µM | > 100 µM | 100 µM | 0.02 µM | 0.02 µM | O=C(O)c1ccccc1CNC(=O)c1cc(O)cc(C(=O)O)c1O [IIa-053a, 3-(2-Carboxyphenylmethylaminocarbonyl)-2,5-dihydroxybenzoic acid] | 63.1%
6 | 2.49 µM | 2.95 µM | 2.95 µM | > 100 µM | 100 µM | > 100 µM | 100 µM | > 100 µM | 100 µM | 89.6 µM | 89.6 µM | 72.2 µM | 72.2 µM | > 100 µM | 100 µM | 0.18 µM | 0.18 µM | O=C(O)c1cc(O)c(C(=O)Nc2ccc(-c3nnn[nH]3)cc2)cc1O [Ia-003a-Tz, 4-(4-(1H-tetrazol-5-yl)phenyl-aminocarbonyl)-2,5-dihydroxybenzoic acid] | 62.2%
7 |  | 0.15 µM | 0.15 µM | > 100 µM | 100 µM | > 100 µM | 100 µM | > 100 µM | 100 µM | 0.37 µM | 0.37 µM | 1.11 µM | 1.11 µM | > 100 µM | 100 µM | 0.51 µM | 0.51 µM | O=C(O)Cc1cc(O)c(C(=O)Nc2c(C(=O)O)cccc2C(=O)O)cc1O [IIIa-013a, 2-(4-(carboxymethyl)-2,5-dihydroxybenzamido)isophthalic acid] | 76.5%
8 | 0.147 µM | 4.34 µM | 4.34 µM | 38.6 µM | 38.6 µM | > 100 µM | 100 µM | > 100 µM | 100 µM | > 100 µM | 100 µM | 27.5 µM | 27.5 µM | > 100 µM | 100 µM | 0.16 µM | 0.16 µM | O=C(O)c1cc(O)cc(CS(=O)(=O)Cc2cc(O)cc(C(=O)O)c2O)c1O [IVc-059a, 3-((2,5-Dihydroxy-3-carboxyphenyl)methylsulfonylmethyl)-2,5-dihydroxybenzoic acid] | 74%

Row | Compound | IC50 (Human neutrophils) | IC50 (IFN-gamma; [1]) | IC50 (IFN-gamma; [2]) | IC50 (IL-1beta; [3]) | IC50 (IL-1beta; [4]) | IC50 (IL-4; [5]) | IC50 (IL-4; [6]) | IC50 (IL-5; [7]) | IC50 (IL-5; [8]) | IC50 (IL-13; [9]) | IC50 (IL-13; [10]) | IC50 (IL-33; [11]) | IC50 (IL-33; [12]) | IC50 (TGF-beta; [13]) | IC50 (TGF-beta; [14]) | IC50 (TNF-alpha; [15]) | IC50 (TNF-alpha; [16]) | inhibition at 0.3 µM (Human neutrophils)
9 | O=C(O)c1cc(NC(=O)c2cc(O)c(C(=O)Nc3ccc(O)c(C(=O)O)c3)cc2O)ccc1O [Ic-007a, 5-(4-(3-carboxy-4-hydroxyphenylaminocarbonyl)-2,5-dihydroxybenzamido)-2-hydroxy benzoic acid] | 2.7 µM | 1.44 µM | 1.44 µM | > 100 µM | 100 µM | > 100 µM | 100 µM | > 100 µM | 100 µM | 30.1 µM | 30.1 µM | 18.4 µM | 18.4 µM | > 100 µM | 100 µM | 0.27 µM | 0.27 µM | 58%

Source: patent publication US20230150951A1, “2,5- OR 2,6-DISUBSTITUTED HYDROQUINONE DERIVATIVES WITH AT LEAST ONE CARBOXY, SULFO OR AMIDO GROUP USEFUL AS MEDICAMENTS” (OM PHARMA SA, priority 2020, published 2023)
